“Also recorded” adds a separate entry of the source.
Tests used:
[1] = test system: HSC compartment; test: Flow cytometric quantitation of hematopoietic stem/progenitor populations and cellularity in bone marrow of treated mice; assay type: in vivo, C57BL/6NTac mice; details: K118 10 mg/kg i.p. 5 days, vs H2O
Procedure: HSC phenotype, cell-cycle progression, G-CSF neutralization, and CXCR4 MFI determination by FACS analysis was performed on whole bone marrow (WBM) cells harvested from a tibia and femur pair obtained from SHIPi and vehicle treated 8-12 week old male C57BL/6NTac mice (Taconic). Generation of the CD45.1×CD45.2 strain utilized in the CRU assay were obtained by intercrossing C57BL6/J (CD45.2) and B6.SJL (CD45.1), as previously described.^5 The SUNY Upstate Medical University Committee for Humane Use of Animals approved all animal experiments.
In vivo administration of 3AC was previously described.^14 Briefly, 3AC is resuspended as an emulsion in 0.3% Klucel/H20. Mice were treated via intraperitoneal injection every 24 hrs for 5 days at a final concentration of 26.5 mg/kg. Analysis and transplants were performed on day 6. The 3AC derivative K118 (Soluble SHIPi) was suspended in pure H2O and heated at 100° C. for ˜15 min to allow the compound to enter solution. The delivery method was the same as with 3AC, however, the mice were treated for 5 days at a final concentration of 10 mg/kg. Vehicle cohorts for 3AC were treated with 0.3% Klucel/H20 and K118 were treated with pure H2O.
Cell isolation was performed according to method detailed in Hazen et al.^6 Briefly, WBM was flushed from both femurs and tibias per mouse with a 25-gauge needle, red blood cell lysed (eBioscience), and resuspended in staining media comprised of Hanks Buffered Saline Solution (HBSS), 2% heat inactivated fetal bovine serum (FBS), and 10 mM HEPES (Sigma). The cells harvested for the CRU assay were flushed, red blood cell lysed, washed, and resuspended in sterile phosphate buffered saline (PBS). Peripheral blood mononuclear cells (PBMC) were collected via submandibular bleed in EDTA Micorvette tubes (SARSTEDT).
All antibodies were from BD Biosciences or eBioscience. All WBM, PBMC and BM derived MSC cell populations were Fc blocked on ice for 10 min prior to antibody staining. Global reconstitution was determined by staining PBMC with CD45.1-PeCy7 and CD45.2-APC. Multi-lineage repopulation was determined by staining PBMC with CD3-FITC (145-2C11), CD19-PerCP5.5 (1D3), Mac1-PE (M1/70), Gr1-Alexa700 (RB6-8C5) and NK1.1-APC-Cy7 (PK136). The Lin−cKit+Sca1+CD34−Flk2− (LSKF34−) phenotype was utilized to determine frequency of LT-HSC, ST-HSC, and MPP; the stain was comprised of Lin-PerCP 5.5, cKit-APC (2B8), Sca1-PeCy7 (D7), CD34-FITC (RAM34), Flk2-PE (A2F10). LSKF-CXCR4 stain was used to determine surface expression of the homing marker CXCR4. All cells were washed twice with staining media, resuspended in staining media plus DAPI for dead cell exclusion, and then analyzed on a flow cytometer LSRII (BD Biosciences). All flow cytometry data was analyzed using FlowJo (9.4.3) software.

[2] = test system: HSC; test: CRU assay (competitive repopulating units), primary and secondary; assay type: in vivo, mice
Procedure: CD45.1^+45.2^+-recipient mice were given a split dose of 550 Rads (x-ray source, RS2000-RAD source technologies, inc.) 4 hours apart for a lethal total dose of 1100 Rads. WBM (5×10^5) cells from 3AC (CD45.2) treated mice were competed with WBM cells from vehicle (CD45.1) treated mice and injected retro-orbitally into CD45.1^+45.2^+ hosts. PBMC multi-lineage reconstitution was evaluated every month post-transplant for 4 months. Transplanted mice were euthanized and serially transplanted to determine self-renewal capacity. Repopulating Units (RU) determination was previously decribed.^15 Briefly, RU=(C×CD45.2 repopulation %)/(100−CD45.2 repopulation %) where C=10^5 competitor cells.^6
Normal Repopulating units (RU) are calculated based on total number of competitor cells transplanted. Due to the expansion in the bone marrow compartment of SHIPi treated mice, we calculated the absolute RU numbers based on RU output determined by CRU assay and total BM cellularity. Total BM cellularity was determined via hemacytometer (BioRAD, TC20 cell counter) based on a total BM cells obtained from an intact set of femurs and tibias for each mouse in the study. Absolute RU=(Total BM cellularity/5×10^5)×RU.

[3] = test system: PDGFRα+CD51+ MSC; test: In vivo MSC immunophenotyping by flow cytometry; parameters: species or system mice; details: K118 10 mg/kg i.p. 5 days, vs H2O
Procedure: PDGFRα^+CD51^+ MSC were detected using methods and reagents as described by Iyer et al.^8 Femurs, tibias, humeri, ulnas, radii, and pelvis were dissected; the bone fragments were cleaned, cut into tiny pieces, and then crushed using a mortar and pestle. The bone chips were then washed several times in HBSS supplemented with 2% heat-inactivated FBS (HBSS/2% HI-FBS) and HBSS only, and then spun at 350×g for 5 mins. The pellet was re-suspended in 3 mg/mL type I collagenase (Worthington) and 15 μg/mL DNAase (Sigma, St. Louis, Mo.) dissolved in HBSS and incubated at 37° C. for 30 min at 110 rpm, this step was repeated twice. Following incubation, mononuclear cells were obtained using a Ficoll gradient ([…] and Histopaque-1077; Sigma, St. Louis, Mo.), and were then used for further analysis. Cells were stained with antibodies as described in Iyer et al.^8

[4] = test system: MSC (CFU-F); test: Colony forming unit (CFU-F) assay on BM cells of treated mice; assay type: in vivo; details: K118 10 mg/kg i.p. 5 days, vs H2O
Procedure: Primary whole BM cells (adherent+non-adherent) were plated in 60-mm plates (triplicates, 3×10^6 cells per plate) in CFU-F growth media: DMEM, Mesencult Serum (Stem Cell Technologies) with 1% penicillin-streptomycin-glutamine. Cells were cultured for approximately 7 days, after which cells were fixed with 70% ethanol and stained for alkaline phosphatase activity using the Leukocyte Alkaline Phosphatase Kit (Sigma) and counter-stained with neutral red (Sigma). Colonies (ALP^+ cells/colonies) were counted using the Software program “Image J” (National Institutes of Health Research Services Branch).

[5] = test system: G-CSF; test: G-CSF ELISA of serum of treated mice; assay type: in vivo; details: K118 10 mg/kg i.p. 5 days, vs H2O; hydrochloride, 10 mg/kg
Procedure: Peripheral blood was collected in serum separation microvette tubes (SARSTEDT). Tubes were kept at room temperature for 2 hrs. and then spun at 2000×g for 20 min as per manufacturers recommendation. Serum levels of G-CSF in treated mice were determined using a Mouse G-CSF Quantikine Elisa kit (R&D systems).

With `C[C@@]12CCC[C@H]1[C@@H]1CC[C@H]3C[C@@H](N)CC[C@]3(C)[C@H]1CC2.Cl` [K118, 3β-amino-5α-androstane hydrochloride] as the compound, how does the BM cellularity [1] read?
The BM cellularity was “significant increase”.

What about the “LT-HSC in BM” value [1] of the same compound?
Its value is “significant increases”.

And the “MPP in BM” value [1]?
The value was “significant increases”.

What about the “ST-HSC in BM” value [1] of the same compound?
Its value is “significant increases”.

And the “absolute CRU numbers” value ([2]; K118 treated vs H2O treated donors)?
Its value is “significant increase”.

And the CRU activity ([2]; primary CRU, WBM of K118 treated vs H2O treated mice)?
The CRU activity was “significant increase”.

And the “MSC numbers in BM” value [3]?
The value was “significant expansion”.

What about the “frequency of CFU-F in BM” value [4] of the same compound?
Its value is “significantly increased frequency”.

And the “G-CSF production (serum)” value [5]?
The value was “significant increase; also recorded: super-induces”.

From patent US20200129523A1, “SHIP INHIBITION TO INDUCE EXPRESSION OF GRANULOCYTE COLONY STIMULATING FACTOR IN A SUBJECT” (THE RESEARCH FOUNDATION FOR THE STATE UNIVERSITY OF NEW YORK, priority 2014, published 2020)
